Experimental: The solubility is measured as described below. A predetermined amount of a compound is mixed with 100 g of water in an environment at 25° C. and is then stirred for 30 minutes. […] As described above, when a predetermined amount of the compound is mixed with 100 g of water, the maximum predetermined amount which is judged to be dissolved is used as the solubility.

| SOLUBILITY [g/100 g OF WATER] | Structure (SMILES) |
| --- | --- |
| >100 g/100 g OF WATER | O=C1CCCCCN1 [ε-CAPROLACTAM, ε-caprolactam] |
| >100 g/100 g OF WATER | OC1CCCCC1O (stereo not drawn) [1,2-CYCLOHEXANEDIOL, 1,2-cyclohexanediol] |

More lines, now with the values behind:

| Structure (SMILES) | SOLUBILITY [g/100 g OF WATER] |
| --- | --- |
| CC(C)(O)CCC(C)(C)O [2,5-dimethyl-2,5-hexanediol] | 14 g/100 g OF WATER |
| CC(C)(CO)CO [NEOPENTYL GLYCOL, neopentyl glycol] | 80 g/100 g OF WATER |
| CC(O)CO (stereo not drawn) [PROPYLENE GLYCOL, propylene glycol] | ∞ |
| CC(C)(O)C(C)(C)O [PINACOL, pinacol] | ∞ |

From patent publication US12091561B2, “Recording method and recording apparatus” (Seiko Epson Corporation, priority 2021, dated 2024)
